In patent US20070213283A1, “Macrolides substituted at the 4"-position” (priority 2003, published 2007):
Structures can show the parent of a compound that is named as a salt.

Legend:
Test in all cases: MIC, standard broth dilution method in microtitre
Type in all cases: cell-based
[1] = system: H. influenzae ATCC 49247; details: Haemophilus influenzae, ATCC49247; H. influenzae ATCC 49247; broth dilution in microtitre; read-out: MIC
Experimental: (§1) Using a standard broth dilution method in microtitre, compounds were tested for antibacterial activity. The compounds in the above examples gave minimum inhibitory concentrations (MICs) less than 1 microgram per millilitre against erythromycin-sensitive and erythromycin-resistant strains of Streptococcus pneumoniae and Streptococcus pyogenes.
(§2) In addition, the MIC (μg/mL) of test compounds against various organisms was determined including:
(§3) S. aureus Smith ATCC 13709, S. pneumoniae SP030, S. pyogenes 3565, E. faecalis ATCC 29212, H. influenzae ATCC 49247, M. catarrhalis ATCC 23246.

[2] = system: E. faecalis ATCC 29212; details: Enterococcus faecalis, ATCC29212
Experimental: as §1, §2, §3

[3] = system: S. pneumoniae SP030; details: Streptococcus pneumoniae
Experimental: as §1, §2, §3

[4] = system: M. catarrhalis ATCC 23246; details: Moraxella catarrhalis, ATCC23246
Experimental: as §1, §2, §3

[5] = system: S. pyogenes 3565; details: Streptococcus pyogenes
Experimental: as §1, §2, §3

[6] = system: S. aureus Smith ATCC 13709; details: Staphylococcus aureus, ATCC13709
Experimental: as §1, §2, §3

MIC [1] [mg/L] | MIC [2] [mg/L] | MIC [3] [mg/L] | MIC [4] [mg/L] | MIC [5] [mg/L] | MIC [6] [mg/L] | SMILES
≤ 2 | ≤ 1 | ≤ 1 | ≤ 2 | ≤ 1 | ≤ 1 | CC[C@H]1OC(=O)[C@H](C)[C@@H](O[C@H]2C[C@@](C)(OC)[C@@H](OC(=O)CCNCCSc3ccc4c(=O)c(C(=O)O)cn(CC)c4c3)[C@H](C)O2)[C@@H](C)[C@@H](O[C@@H]2O[C@H](C)C[C@H](N(C)C)[C@H]2O)[C@](C)(O)C[C@@H](C)CN(C)[C@H](C)[C@@H](O)[C@]1(C)O [Example 1, 4″-O-{3-[2-(3-Carboxy-1-ethyl-4-oxo-1,4-dihydro-7-quinolinylsulfanyl)ethylamino]propionyl}-azithromycin]
≤ 2 | ≤ 1 | ≤ 1 | ≤ 2 | ≤ 1 | ≤ 1 | CC[C@@H]1OC(=O)[C@H](C)[C@@H](O[C@H]2C[C@@](C)(OC)[C@@H](OC(=O)CCNCCSc3ccc4c(=O)c(C(=O)O)cn(CC)c4c3)[C@@H](C)O2)[C@@H](C)[C@H](O[C@H]2O[C@@H](C)C[C@@H](N(C)C)[C@H]2O)[C@](C)(O)C[C@H](C)CN(C)[C@H](C)[C@H]2OC(=O)O[C@]12C [Example 2, 4″-O-{3-[2-(3-Carboxy-1-ethyl-4-oxo-1,4-dihydro-7-quinolinylsulfanyl)ethylamino]propionyl}-azithromycin-11,12-carbonate]
≤ 2 | – | – | ≤ 2 | – | – | CC[C@@H]1OC(=O)[C@H](C)[C@H](O[C@H]2C[C@@](C)(OC)[C@@H](OC(=O)CCNCCSc3ccc4c(=O)c(C(=O)O)cn(CC)c4c3)[C@@H](C)O2)[C@@H](C)[C@H](OC2O[C@@H](C)C[C@@H](N(C)C)[C@H]2O)[C@@](C)(OC)C[C@H](C)C(=O)[C@H](C)[C@@H](O)[C@]1(C)O (some centres unmarked) [Example 3, 4″-O-{3-[2-(3-Carboxy-1-ethyl-4-oxo-1,4-dihydro-7-quinolinylsulfanyl)ethylamino]propionyl}-6-O-methyl-erythromycin A]
– | ≤ 1 | ≤ 1 | – | ≤ 1 | ≤ 1 | CC[C@@H]1OC(=O)[C@H](C)[C@H](O[C@@H]2C[C@](C)(OC)[C@H](OC(=O)CCNCCSc3ccc4c(c3)c(=O)c(C(=O)O)cn4CC)[C@H](C)O2)[C@@H](C)[C@H](O[C@@H]2O[C@H](C)C[C@H](N(C)C)[C@@H]2O)[C@](C)(O)C[C@H](C)CN(C)[C@H](C)[C@@H](O)[C@]1(C)O [Example 10, 4″-O-{3-[2-(3-Carboxy-1-ethyl-4-oxo-1,4-dihydro-6-quinolinysulfanyl)ethylamino]propionyl}-azithromycin]
– | ≤ 1 | ≤ 1 | – | ≤ 1 | ≤ 1 | CC[C@@H]1OC(=O)[C@H](C)[C@H](O[C@@H]2C[C@](C)(OC)[C@H](OC(=O)CCNCCOc3cc4c5c(c3)c(=O)c(C(=O)O)cn5CCC4)[C@H](C)O2)[C@@H](C)[C@H](O[C@@H]2O[C@H](C)C[C@H](N(C)C)[C@@H]2O)[C@](C)(O)C[C@H](C)CN(C)[C@H](C)[C@@H](O)[C@]1(C)O [Example 12, 4″-O-{3-[2-(6-Carboxy-7-oxo-2,3-dihydro-1H,7H-pyrido[3,2,1-ij]quinolin-9-yloxy)ethylamino]propionyl}-azithromycin tris trifluoroacetate salt]
– | ≤ 1 | ≤ 1 | – | ≤ 1 | ≤ 1 | CC[C@@H]1OC(=O)[C@H](C)[C@H](O[C@@H]2C[C@](C)(OC)[C@H](OC(=O)CCNCCOc3ccc4c(c3)c(=O)c(C(=O)O)cn4CC)[C@H](C)O2)[C@@H](C)[C@H](O[C@@H]2O[C@H](C)C[C@H](N(C)C)[C@@H]2O)[C@](C)(O)C[C@H](C)CN(C)[C@H](C)[C@@H](O)[C@]1(C)O [Example 14, 4″-O-{3-[2-(3-Carboxy-1-ethyl-4-oxo-1,4-dihydro-6-quinolinyloxy)ethylamino]propionyl}-azithromycin tris trifluoroacetate salt]
– | ≤ 1 | ≤ 1 | – | ≤ 1 | ≤ 1 | CC[C@H]1OC(=O)[C@H](C)[C@@H](O[C@H]2C[C@@](C)(OC)[C@@H](OC(=O)CCOCCOc3cc4c(=O)c(C(=O)O)cn(C5CC5)c4cc3Cl)[C@H](C)O2)[C@H](C)[C@@H](O[C@@H]2O[C@H](C)C[C@H](N(C)C)[C@H]2O)[C@](C)(O)C[C@@H](C)CN(C)[C@H](C)[C@H]2OC(=O)O[C@@]21C [Example 25, 4″-O-{3-[2-(3-Carboxy-7-chloro-1-cyclopropyl-4-oxo-1,4-dihydro-quinolin-6-yloxy)-ethoxy]-propionyl}-azithromycin11,12-carbonate]
≤ 2 | ≤ 1 | ≤ 1 | ≤ 2 | ≤ 1 | ≤ 1 | CC[C@H]1OC(=O)[C@H](C)[C@@H](O[C@H]2C[C@@](C)(OC)[C@@H](OC(=O)CCOCCOc3ccc4c(c3)c(=O)c(C(=O)O)cn4C3CC3)[C@H](C)O2)[C@H](C)[C@@H](O[C@@H]2O[C@H](C)C[C@H](N(C)C)[C@H]2O)[C@](C)(O)C[C@@H](C)CN(C)[C@H](C)[C@H]2OC(=O)O[C@@]21C [Example 26, 4″-O-{3-[2-(3-Carboxy-1-cyclopropyl-4-oxo-1,4-dihydro-quinolin-6-yloxy)-ethoxy]-propionyl}-azithromycin11,12-carbonate]
≤ 2 | ≤ 1 | ≤ 1 | ≤ 2 | ≤ 1 | ≤ 1 | CC[C@H]1OC(=O)[C@H](C)[C@@H](OC2C[C@@](C)(OC)[C@@H](OC(=O)CCOCCOc3cc4c(=O)c(C(=O)O)cn(C5CC5)c4cc3Cl)[C@H](C)O2)[C@H](C)[C@@H](O[C@@H]2O[C@H](C)C[C@H](N(C)C)[C@H]2O)[C@](C)(O)C[C@@H](C)CN(C)[C@H](C)[C@@H](OC)[C@]1(C)O (some centres unmarked) [Example 34, 4″-O-{3-[2-(3-Carboxy-7-chloro-1-cyclopropyl-4-oxo-1,4-dihydro-quinolin-6-yloxy)-ethoxy]-propionyl}-11-O-methyl-azithromycin]
≤ 2 | ≤ 1 | ≤ 1 | ≤ 2 | ≤ 1 | ≤ 1 | CC[C@H]1OC(=O)[C@H](C)[C@@H](OC2C[C@@](C)(OC)[C@@H](OC(=O)CCOCCOc3ccc4c(c3)c(=O)c(C(=O)O)cn4C3CC3)[C@H](C)O2)[C@H](C)[C@@H](OC2O[C@H](C)C[C@H](N(C)C)[C@H]2O)[C@](C)(O)C[C@@H](C)CN(C)[C@H](C)[C@@H](OC)[C@]1(C)O (some centres unmarked) [Example 35, 4″-O-{3-[2-(3-Carboxy-1-cyclopropyl-4-oxo-1,4-dihydro-quinolin-6-yloxy)-ethoxy]-propionyl}-11-O-methyl-azithromycin]
– | ≤ 1 | ≤ 1 | – | ≤ 1 | ≤ 1 | CC[C@H]1OC(=O)[C@H](C)[C@@H](O[C@H]2C[C@@](C)(OC)[C@@H](OC(=O)CCOCCNc3cc4c(=O)c(C(=O)O)cn(C5CC5)c4cc3Cl)[C@H](C)O2)[C@H](C)[C@@H](O[C@@H]2O[C@H](C)C[C@H](N(C)C)[C@H]2O)[C@](C)(OC)C[C@@H](C)C(=O)[C@H](C)[C@@H](O)[C@]1(C)O [Example 36, 4″-O-{3-[2-(3-Carboxy-7-chloro-1-cyclopropyl-4-oxo-1,4-dihydro-quinolin-6-ylamino)ethoxy]propionyl}-6-O-methyl-erythromycin A]
– | ≤ 1 | ≤ 1 | – | ≤ 1 | ≤ 1 | CC[C@@H]1OC(=O)[C@H](C)[C@H](O[C@@H]2C[C@@](C)(OC)[C@H](OC(=O)CCOCCOc3cc4c(=O)c(C(=O)O)cn(C5CC5)c4cc3Cl)[C@H](C)O2)[C@@H](C)[C@H](O[C@@H]2O[C@H](C)C[C@H](N(C)C)[C@@H]2O)[C@@](C)(OC)C[C@H](C)C(=O)[C@H](C)[C@@H](O)[C@]1(C)O [Example 37, 4″-O-{3-[2-(3-Carboxy-7-chloro-1 cyclopropyl-4-oxo-1,4-dihydro-quinolin-6-yloxy)ethoxy]propionyl}-6-O-methyl-erythromycin A]
≤ 2 | ≤ 1 | ≤ 1 | ≤ 2 | ≤ 1 | ≤ 1 | CC[C@H]1OC(=O)[C@H](C)[C@@H](O[C@H]2C[C@@](C)(OC)[C@@H](OC(=O)CCOCCNc3cc4c(cc3F)c(=O)c(C(=O)O)cn4C3CC3)[C@H](C)O2)[C@H](C)[C@@H](O[C@@H]2O[C@H](C)C[C@H](N(C)C)[C@H]2O)[C@](C)(O)C[C@@H](C)CN(C)[C@H](C)[C@@H](O)[C@]1(C)O [Example 40, 4″-O-{3-[2-(3-Carboxy-1-cyclopropyl-6-fluoro-4-oxo-1,4-dihydro-quinolin-7-ylamino)ethoxy]propionyl}-azithromycin]

SMILES | MIC [1] [mg/L] | MIC [2] [mg/L] | MIC [3] [mg/L] | MIC [4] [mg/L] | MIC [5] [mg/L] | MIC [6] [mg/L]
CC[C@@H]1OC(=O)[C@H](C)[C@H](O[C@H]2C[C@](C)(OC)[C@@H](OC(=O)CCNCCSc3cnc4c(c3)c(=O)c(C(=O)O)cn4CC)[C@@H](C)O2)[C@@H](C)[C@H](O[C@H]2O[C@@H](C)C[C@@H](N(C)C)[C@H]2O)[C@@](C)(O)C[C@H](C)CN(C)[C@H](C)[C@@H](O)[C@@]1(C)O [Example 4, 4″-O-{3-[2-(3-Carboxy-1-ethyl-4-oxo-1,4-dihydro-[1,8]naphthyridin-6-ylsulfanyl)ethylamino]propionyl}-azithromycin tris trifluoroacetate salt] | ≤ 2 | ≤ 1 | ≤ 1 | ≤ 2 | ≤ 1 | ≤ 1
